# Source: US9012431B2, “Boron-containing small molecules as anti-inflammatory agents” (Anacor Pharmaceuticals, Inc., priority 2008, dated 2015)
# Where a name gives a salt, the structure may show the parent alone.
# Tests used:
# IL-10 = assay: Cytokine assay, IL-10 release from PBMC; format: cell-based; conditions: human PBMC, 20 ug/mL PHA, supernatant at 48 hours
# Outline: (§1)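 Cryopreserved human PBMC were thawed and resuspended in RPMI 1640 with 10% FBS. Test compounds, diluted from 10 mM DMSO stocks, were applied in triplicate at 10, 1, 0.1 and 0.01 μM, and cytokine release was measured.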
# IL-2 = assay: Cytokine assay, IL-2 release from PBMC; format: cell-based; conditions: human PBMC, 20 ug/mL PHA, supernatant at 24 hours
# Outline: as §1
# IFN-γ = assay: Cytokine assay, IFN-γ release from PBMC; format: cell-based; conditions: human PBMC, 20 ug/mL PHA, supernatant at 24 hours
# Outline: as §1
# TNF-α = assay: Cytokine assay, TNF-α release from PBMC; format: cell-based; conditions: Homo sapiens, PBMC, 24 h, 1 μg/mL LPS, supernatant at 24 hours
# Outline: as §1
# [1] = test system: T1, PDE4 partially purified from human U-937 myeloid leukemia cells; assay: PDE4 Assay (enzyme from U-937 cells, [3H]cAMP); format: biochemical; conditions: PDE4 from U-937 cells, Tris buffer pH 7.5, 20 minutes at 25° C.
# T1 construct: PDE4 partially purified from human U-937 myeloid leukemia cells was used
# [2] = test system: CD-1 (Crl.) derived male mice; assay: Phorbol Ester Induced Mouse Ear Edema Model; format: in vivo; conditions: topical, 6 h; for inhibition in vivo at 0.02 mg: 0.02 mg/ear × 2 topical; for inhibition in vivo at 0.06 mg: 0.06 mg/ear × 2 topical; for inhibition in vivo at 0.2 mg: 0.2 mg/ear × 2 topical; for inhibition in vivo at 3 mg: 3 mg/ear × 2 topical
# Protocol: 1. In Vivo Anti-Inflammation Activity in Phorbol Ester Induced Mouse Ear Edema Model
# […] Dexamethasone (1 mg/ear×2) used as the positive control was administered topically to test animals using the same application schedule. Ear swelling was then measured by a Dyer model micrometer gauge at 6 hours after PMA application as an index of inflammation. Percent inhibition was calculated according to the formula: [(Ic−It)/Ic]×100%, where Ic and It refer to increase of ear thickness (mm) in control and treated mice, respectively.
# IL-5 = assay: Cytokine assay, IL-5 release from PBMC; format: cell-based; conditions: human PBMC, 20 ug/mL PHA, supernatant at 48 hours
# Outline: as §1
# BALB/c male mice = assay: Oxazolone Induced Mouse Ear Edema Model; format: in vivo; conditions: 95% Ethanol, ear thickness 24 hours after second oxazolone application
# Protocol: 2. In Vivo Anti-Inflammation Activity in Oxazolone Induced Mouse Ear Edema Model
# Groups of 5 BALB/c male mice weighing 23±2 g were used. The preshaved abdomens of test animals were sensitized by application of 100 μl, of 1.5% oxazolone solution dissolved in acetone. Seven days after the initial sensitization, test substances, as well as vehicle (acetone:ethanol/1:1, 20 μL/ear) were each administered topically to the anterior and posterior surfaces of the right ear 30 minutes before, and 15 minutes after, challenge by a second application of oxazolone (1% in acetone, […]) via topical route. As a positive control, indomethacin (0.3 mg/ear×2) was administered topically using the same treatment regime as for the test compounds. Twenty-four hours after the second application of oxazolone, the ear thickness of each mouse was measured with a Dyer model micrometer gauge. A 30 percent or more inhibition in ear swelling relative to the vehicle control was considered significant and indicated possible anti-inflammatory activity.
# [3] = 1 mg/ear × 2 topical, Acetone:Ethanol/1:1, ear swelling 6 hours after PMA
# [4] = 1 mg/ear topical, Acetone:Ethanol/1:1, ear swelling 6 hours after PMA
# [5] = 95% Ethanol, ear swelling 6 hours after PMA
structure (smiles),measurement,setting,value
"N#Cc1ccc(Oc2ccc3c(c2)COB3O)c(O)c1 [D14, 5-(4-Cyano-2-hydroxyphenoxy)-1,3-dihydro-1-hydroxy-2,1-benzoxaborole]",IC50,IL-10,1000 to 4000 nM
same,IC50,IL-2,< 1000 nM
same,IC50,IFN-γ,< 1000 nM
same,IC50,TNF-α,< 1000 nM
same,IC50,[1],< 1000 nM
same,inhibition in vivo at 0.05 mg,"[2]; 0.05 mg/ear × 2 topical, 95% Ethanol, ear swelling 6 hours after PMA",< 30%
same,inhibition in vivo at 0.17 mg,"[2]; 0.17 mg/ear × 2 topical, 95% Ethanol, ear swelling 6 hours after PMA",< 30%
same,inhibition in vivo at 0.51 mg,"[2]; 0.51 mg/ear × 2 topical, 95% Ethanol, ear swelling 6 hours after PMA",< 30%
same,inhibition in vivo at 1 mg,"[2]; 1 mg/ear × 2 topical, 95% Ethanol, ear swelling 6 hours after PMA",< 30%
same,inhibition in vivo at 1 mg,[2]; [3],< 30%
same,IC50,IL-5,< 1000 nM
"COC(=O)c1ccc(Oc2ccc3c(c2)COB3O)c(F)c1 [D50, 5-(2-Fluoro-4-methoxycarbonylphenoxy)-1-hydroxy-2,1-benzoxaborole]",IC50,IL-10,4000 to 10000 nM
same,IC50,IL-2,< 1000 nM
same,IC50,IFN-γ,< 1000 nM
same,IC50,TNF-α,< 1000 nM
same,IC50,[1],< 1000 nM
same,inhibition in vivo at 1 mg,[2]; [3],60 to 90%
same,IC50,IL-5,1000 to 4000 nM
"CN1CCN(C(=O)COc2cc(C#N)ccc2Oc2ccc3c(c2)COB3O)CC1 [D29, 4-(2-(5-cyano-2-(1-hydroxy-1,3-dihydrobenzo[c][1,2]oxaborol-5-yloxy)phenoxy)acetyl)-1-methylpiperazine hydrochloride]",IC50,IL-10,> 10000 nM
same,IC50,IL-2,< 1000 nM
same,IC50,IFN-γ,< 1000 nM
same,IC50,TNF-α,< 1000 nM
same,IC50,[1],< 1000 nM
same,inhibition in vivo at 1 mg,[2]; [3],< 30%
same,IC50,IL-5,< 1000 nM
"N#Cc1ccc(Oc2ccc3c(c2)COB3O)c(CN2CCOCC2)c1 [D32, 4-(5-cyano-2-1-hydroxy-1,3-dihydrobenzo[c][1,2]oxaborol-5-yloxy)benzyl)morpholine hydrochloride]",IC50,IL-10,< 1000 nM
same,IC50,IL-2,< 1000 nM
same,IC50,IFN-γ,< 1000 nM
same,IC50,TNF-α,< 1000 nM
same,IC50,[1],< 1000 nM
same,inhibition in vivo at 1 mg,[2]; [4],< 30%
same,inhibition in vivo at 1 mg,[2]; [3],< 30%
same,IC50,IL-5,< 1000 nM
"CCNC(=O)c1ccc(Oc2ccc3c(c2)COB3O)nc1 [D63, N-Ethyl-6-(1-hydroxy-1,3-dihydrobenzo[c][1,2]oxaborol-5-yloxy) nicotinamide]",IC50,IL-10,1000 to 4000 nM
same,IC50,IL-2,< 1000 nM
same,IC50,IFN-γ,1000 to 4000 nM
same,IC50,TNF-α,< 1000 nM
same,IC50,[1],< 1000 nM
same,inhibition in vivo at 1 mg,[2]; [3],< 30%
same,IC50,IL-5,1000 to 4000 nM
"CN1CCN(Cc2cc(C#N)ccc2Oc2ccc3c(c2)COB3O)CC1 [D33, 1-(5-cyano-2-(1-hydroxy-1,3-dihydrobenzo[c][1,2]oxaborol-5-yloxy)benzyl)-4-methylpiperazine-1,4-diium]",IC50,IL-10,< 1000 nM
same,IC50,IL-2,< 1000 nM
same,IC50,IFN-γ,< 1000 nM
same,IC50,TNF-α,< 1000 nM
same,IC50,[1],< 1000 nM
same,inhibition in vivo at 1 mg,[2]; [4],< 30%
same,IC50,IL-5,< 1000 nM
"CN(C)Cc1cc(C#N)ccc1Oc1ccc2c(c1)COB2O [D34, 1-(5-cyano-2-(1-hydroxy-1,3-dihydrobenzo[c][1,2]oxaborol-5-yloxy)phenyl)-N,N-dimethylmethanaminium]",IC50,IL-10,1000 to 4000 nM
same,IC50,IL-2,< 1000 nM
same,IC50,IFN-γ,< 1000 nM
same,IC50,TNF-α,1000 to 4000 nM
same,IC50,[1],1000 to 4000 nM
same,inhibition in vivo at 1 mg,[2]; [4],< 30%
same,IC50,IL-5,1000 to 4000 nM
"N#Cc1ccc(Oc2ccc3c(c2)COB3O)cc1O [D10, 5-(4-Cyano-3-hydroxyphenoxy)-1,3-dihydro-1-hydroxy-2,1-benzoxaborole]",IC50,IL-10,1000 to 4000 nM
same,IC50,IL-2,4000 to 10000 nM
same,IC50,IFN-γ,4000 to 10000 nM
same,IC50,TNF-α,< 1000 nM
same,IC50,[1],1000 to 4000 nM
same,inhibition in vivo at 1 mg,[2]; [3],60 to 90%
same,IC50,IL-5,4000 to 10000 nM
"COC(=O)c1ccc(Oc2ccc3c(c2)COB3O)nc1 [D65, Methyl 6-(1-hydroxy-1,3-dihydrobenzo[c][1,2]oxaborol-5-yloxy)nicotinate]",IC50,IL-10,< 1000 nM
same,IC50,IL-2,< 1000 nM
same,IC50,IFN-γ,< 1000 nM
same,IC50,TNF-α,< 1000 nM
same,IC50,[1],< 1000 nM
same,inhibition in vivo at 1 mg,[2]; [3],30 to 60%
same,IC50,IL-5,< 1000 nM
"COCCNc1ccc(C#N)c(Oc2ccc3c(c2)COB3O)n1 [D101, 2-(1-Hydroxy-1,3-dihydro-benzo[c][1,2]oxaborol-5-yloxy)-6-(2-methoxy-ethylamino)-nicotinonitrile]",IC50,IL-10,1000 to 4000 nM
same,IC50,IL-2,< 1000 nM
same,IC50,IFN-γ,< 1000 nM
same,IC50,TNF-α,< 1000 nM
same,IC50,[1],< 1000 nM
same,inhibition in vivo at 0.8 mg,"[2]; 0.8 mg/ear × 2 topical, 95% Ethanol, ear swelling 6 hours after PMA",< 30%
same,inhibition in vivo at 2.4 mg,"[2]; 2.4 mg/ear × 2 topical, 95% Ethanol, ear swelling 6 hours after PMA",< 30%
same,IC50,IL-5,< 1000 nM
"COc1ccc2c(c1)c(CC(=O)O)c(C)n2C(=O)c1ccc(Cl)cc1 [Indomethacin, indomethacin, reference compound]",inhibition in vivo at 0.3 mg,BALB/c male mice; 0.3 mg/ear × 2 topical,40 to 60%
"CN(C)c1nc(Oc2ccc3c(c2)COB3O)ccc1C#N [D95, 2-Dimethylamino-6-(1-hydroxy-1,3-dihydro-benzo[c][1,2]oxaborol-5-yloxy)-nicotinonitrile]",IC50,IL-10,1000 to 4000 nM
same,IC50,IL-2,< 1000 nM
same,IC50,IFN-γ,< 1000 nM
same,IC50,TNF-α,< 1000 nM
same,IC50,[1],< 1000 nM
same,inhibition in vivo at 0.02 mg,[2]; [5],< 30%
same,inhibition in vivo at 0.06 mg,[2]; [5],< 30%
same,inhibition in vivo at 0.2 mg,[2]; [5],< 30%
same,IC50,IL-5,< 1000 nM
COCCOc1nc(Oc2ccc3c(c2)COB3O)ccc1C#N [D86],IC50,IL-10,< 1000 nM
same,IC50,IL-2,< 1000 nM
same,IC50,IFN-γ,< 1000 nM
same,IC50,TNF-α,< 1000 nM
same,IC50,[1],< 1000 nM
same,inhibition in vivo at 0.063 mg,"[2]; 0.063 mg/ear × 2 topical, 95% Ethanol, ear swelling 6 hours after PMA",< 30%
same,inhibition in vivo at 0.21 mg,"[2]; 0.21 mg/ear × 2 topical, 95% Ethanol, ear swelling 6 hours after PMA",< 30%
same,inhibition in vivo at 0.63 mg,"[2]; 0.63 mg/ear × 2 topical, 95% Ethanol, ear swelling 6 hours after PMA",< 30%
same,inhibition in vivo at 3 mg,[2]; [5],< 30%
same,IC50,IL-5,< 1000 nM
"CCOC(=O)c1ccc(Oc2ccc3c(c2)COB3O)nc1OCC [D27, Ethyl 2-ethoxy-6-(1-hydroxy-1,3-dihydrobenzo[c][1,2]oxaborol-5-yloxy)nicotinate]",inhibition in vivo at 3 mg,BALB/c male mice; 3 mg/ear × 2 topical,20 to 30%
same,IC50,IL-2,< 1000 nM
same,IC50,IFN-γ,< 1000 nM
same,IC50,TNF-α,< 1000 nM
same,IC50,[1],< 1000 nM
"COc1cc(Oc2ccc3c(c2)COB3O)ncc1C#N [D109, 6-(1-Hydroxy-1,3-dihydro-benzo[c][1,2]oxaborol-5-yloxy)-4-methoxy-nicotinonitrile]",IC50,IL-10,< 1000 nM
same,IC50,IL-2,< 1000 nM
same,IC50,IFN-γ,< 1000 nM
same,IC50,TNF-α,< 1000 nM
same,IC50,[1],< 1000 nM
same,inhibition in vivo at 0.02 mg,[2]; [5],< 30%
same,inhibition in vivo at 0.067 mg,"[2]; 0.067 mg/ear × 2 topical, 95% Ethanol, ear swelling 6 hours after PMA",< 30%
same,inhibition in vivo at 0.2 mg,[2]; [5],< 30%
same,IC50,IL-5,< 1000 nM
"CN(CCO)c1ccc(C#N)c(Oc2ccc3c(c2)COB3O)n1 [D98, 2-(1-hydroxy-1,3-dihydro-benzo[c][1,2]oxaborol-5-yloxy)-6-[(2-hydroxy-ethyl)-methyl-amino]-nicotinonitrile]",IC50,IL-10,< 1000 nM
same,IC50,IL-2,< 1000 nM
same,IC50,IFN-γ,< 1000 nM
same,IC50,TNF-α,< 1000 nM
same,IC50,[1],< 1000 nM
same,inhibition in vivo at 0.02 mg,[2]; [5],< 30%
same,inhibition in vivo at 0.06 mg,[2]; [5],< 30%
same,inhibition in vivo at 0.2 mg,[2]; [5],30 to 60%
same,IC50,IL-5,< 1000 nM
"CNc1nc(Oc2ccc3c(c2)COB3O)ccc1C#N [D110, 6-(1-Hydroxy-1,3-dihydro-benzo[c][1,2]oxaborol-5-yloxy)-2-methylamino-nicotinonitrile]",IC50,IL-10,> 10000 nM
same,IC50,IL-2,< 1000 nM
same,IC50,IFN-γ,< 1000 nM
same,IC50,TNF-α,< 1000 nM
same,IC50,[1],< 1000 nM
same,inhibition in vivo at 0.02 mg,[2]; [5],< 30%
same,inhibition in vivo at 0.06 mg,[2]; [5],< 30%
same,inhibition in vivo at 0.2 mg,[2]; [5],< 30%
same,IC50,IL-5,< 1000 nM
"CCCOC(=O)c1ccc(Oc2ccc3c(c2)COB3O)cc1 [D73, 4-(1-Hydroxy-1,3-dihydro-benzo[c][1,2]oxaborol-5-yloxy)-benzoic acid propyl ester]",IC50,IL-10,> 10000 nM
same,IC50,IL-2,1000 to 4000 nM
same,IC50,IFN-γ,4000 to 10000 nM
same,IC50,TNF-α,1000 to 4000 nM
same,IC50,[1],< 1000 nM
same,inhibition in vivo at 1 mg,"[2]; 1 mg/ear × 2 topical, vehicle not given, ear swelling 6 hours after PMA",30 to 60%
same,inhibition in vivo at 3 mg,"[2]; vehicle not given, ear swelling 6 hours after PMA",60 to 90%
same,IC50,IL-5,1000 to 4000 nM
